Consider 59 molecules from the METLIN SMRT retention time set (Domingo-Almenara et al. 2019).

Each structure is given as a SMILES string.

This data set is described as follows: gradient 5% acetonitrile 3 min, to 50% in 2 min, to 85% in 15 min, held 3 min, 100 µL/min. The settings on record: column: Zorbax Extend-C18 2.1 x 50 mm; eluents: water / acetonitrile, 0.1% formic acid. An outline of the steps: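 In both positive and negative ionization mode, a quadrupole time-of-flight mass spectrometer coupled to HPLC analyzed pure standards run in mixtures of ~100 molecules. The Zorbax Extend-C18 column (2.1 × 50 mm, 1.8 μm) was operated at 100 μL/min with water and acetonitrile, each containing 0.1% formic acid. The dead volume was 40 μL and the dwell volume 900 μL. Retention time came from adduct peaks that were computationally picked and individually inspected by hand.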
`COc1ccc(-c2ncc3c(n2)CCN(S(=O)(=O)c2cccc(C)c2)C3)cc1` displayed an RP-LC retention time of 1070 s.
On to `CN(CC1CCOC1)S(=O)(=O)Cc1cccc(Cl)c1` (centres undefined), for which the RP-LC retention time is 804 s.
Then `COc1cccc(N2CCN(c3ccnc(SCC(=O)Nc4c(C)cc(C)cc4C)n3)CC2)c1`, with 861 s; and `O=c1ccc(-c2ccc3c(c2)OCO3)nn1CCc1nc(-c2ccc(Br)cc2)no1`, with 1050 s; and `CCc1cc(=O)n(CC(=O)Nc2ccc(Cl)cc2)c(-c2ccccc2)n1`, with 1190 s.
The value for `CC(c1ccccc1)N1CC(=O)N(c2cccc(Cl)c2)[C@@H]2CS(=O)(=O)C[C@@H]21` (some centres undefined) was 894 s; that for `O=c1ccc2cc(S(=O)(=O)N3CCN(c4ccccn4)CC3)ccc2[nH]1` was 581 s; that for `O=C(Cc1cccc(C(F)(F)F)c1)Nc1cccn2c(C3CCC3)nnc12` was 905 s.
Then `Cn1ncc2c3ccccc3n(CCCC(=O)NCc3ccc4c(c3)OCO4)c2c1=O`, with 751 s; and `CCOC(=O)c1nc(NCC2CCN(Cc3ccccc3C)CC2)c2c(C)noc2n1`, with 738 s; and `Cc1ccc(CNC(=O)C2CCCCC(=O)N2)o1` (centres undefined), with 636 s.
Molecule `O=C(Cn1ccn2nc(-c3ccc(F)cc3)c(CO)c2c1=O)NC1CCCC1` yielded an RP-LC retention time of 770 s.
The value for `O=C(NC1CCN(Cc2ccccc2)CC1)c1cc2n(n1)CCCN(Cc1ccc(F)cc1)C2=O` was 658 s; that for `CC(C)Cc1ccc(S(=O)(=O)N2CCc3c(c(-c4nnc(-c5ccccc5F)o4)nn3C)C2)cc1` was 1140 s.
The value for `O=C(CSc1nnc2c3cc(-c4ccccc4)nn3ccn12)Nc1cccc(C(F)(F)F)c1` was 969 s; that for `O=C(NC1CCN(c2cc(-c3ccc(Cl)cc3)[nH]n2)C1)c1ccc2[nH]ccc2c1` (centres undefined) was 742 s.
Then `COc1ccc2[nH]c3c(c2c1)CCN1C(=O)N(c2ccccc2OC)C(=O)C31C` (centres undefined), with 884 s; and `CCn1c(=O)sc2cc(S(=O)(=O)N3CCC(C(=O)NCc4ccccn4)CC3)ccc21`, with 629 s; and `Cc1ccc2[nH]cc(CCNC(=O)C3CCN(c4ccc(N5CCCCC5)nn4)CC3)c2c1`, with 685 s.
`Fc1ccc(Nc2c(-c3ccc(Cl)cc3)nc3cnccn23)cc1`: the RP-LC retention time is 963 s.
Then `CCCN(C(C)=O)c1nc(-c2ccc(C3CCCCC3)cc2)cs1`, with 748 s.
The value for `CCc1noc(NC(C)=O)c1-c1ccc(OC)c(S(=O)(=O)Nc2ccc(OC)cc2OC)c1` was 777 s.
The value for `COc1ccc(NC(=O)c2nc(C)oc2C)cc1F` was 843 s; that for `Cc1nc(N2CCCC2)c2c(C(=O)NCCCc3ccccc3)c(C)oc2n1` was 754 s.
`COC(=O)c1ncn2c1C(=O)N(c1cc(C)ccc1C)C(C)(C(=O)NCc1ccccc1)C2` (centres undefined) showed an RP-LC retention time of 731 s.
Then `Clc1cccc(-c2csc(Cc3nc(-c4ccc5c(c4)OCO5)no3)n2)c1`, with 1260 s; and `Cc1cc(S(=O)(=O)N2CCc3c(c(-c4nnc(-c5ccc(F)cc5)o4)nn3C)C2)ccc1F`, with 992 s; and `O=C(NCc1ccc(N2CCOCC2)nc1)c1ccc(Cl)s1`, with 618 s.
The value for `O=C(Cn1cccc1-c1nc(-c2ccccc2)no1)Nc1ccc2c(c1)CCC2` was 1100 s.
For the molecule `COc1ccc2[nH]cc(C(=O)O)c(=O)c2c1`, the RP-LC retention time was found to be 605 s.
Then `Cc1ccc(CNC(=O)C2CCN(S(=O)(=O)c3ccc4[nH]c(=O)ccc4c3)CC2)cc1`, with 738 s; and `CCCCNC(=O)Cn1cccc(-c2nc(-c3ccc(F)cc3)no2)c1=O`, with 790 s; and `O=C(NC1CCCCC1)C1CCN(C(=O)c2cccn2-c2cccnc2)CC1`, with 673 s.
Consider `Cn1nccc1-c1cccc(-c2noc(-c3cnccn3)n2)c1`, for which the RP-LC retention time is 786 s.
For the molecule `O=C(NCCCN1CCOCC1)C1CCc2sc(C(=O)N3CCCC3)cc2C1` (centres undefined), the RP-LC retention time worked out at 576 s.
In turn, `O=C(NCC1COc2ccccc2O1)C(=O)c1c[nH]c2ccccc12` (centres undefined) had an RP-LC retention time of 920 s.
Then `Cc1ccc(NC(=O)CSc2nc3nc(C)cc(C)n3n2)cc1`, with 726 s.
Molecule `CC(C)Oc1ccc(CNC(=O)c2nnc(-c3ccc(S(=O)(=O)N4CCOCC4)cc3)o2)cc1` gave an RP-LC retention time of 915 s.
In turn, `CCCCNC(=O)c1cn(C)nc1S(=O)(=O)N1CCC(C)CC1` had an RP-LC retention time of 938 s.
Then `CCC(=O)N1CCc2c(C(=O)NCCN3CCc4ccccc4C3)cccc21`, with 614 s; and `O=S(=O)(Nc1ccc(Cl)cn1)c1cc(-c2noc(C3CCCC3)n2)cs1`, with 1070 s; and `NC(=O)C1CCN(C(=O)c2snc(-c3ccccn3)c2N)CC1`, with 645 s.
The value for `O=C(Cc1ccc(F)cc1)NCC1CC(=O)N(Cc2ccc(F)cc2)C1` (centres undefined) was 871 s.
`Cc1cccc(-c2nc(Cn3nnc(-c4nc(-c5ccncc5)no4)c3C)c(C)o2)c1`: the RP-LC retention time amounted to 1070 s.
In turn, `Cc1cc(C)c(C)c(S(=O)(=O)NCC(=O)NCc2ccco2)c1C` returned an RP-LC retention time of 573 s.
The value for `COc1cccc(CNC(=O)CN2C(=O)NC(c3ccccc3Cl)C3=C2COC3=O)c1OC` (centres undefined) was 739 s; that for `Cc1ccc(S(=O)(=O)N2CCCC(CCC(=O)N3CCOCC3)C2)cc1` (centres undefined) was 814 s; that for `Clc1ccc(C(OCCN2CCCCC2)c2ccccc2)cc1` (centres undefined) was 850 s.
Then `COc1cccc(NC(=O)c2sc(-c3cn(C(C)C)c4ncccc34)nc2C)c1`, with 1060 s; and `COc1ccc(NC(=O)c2cc(C(C)C)n3nccc3n2)c(C)c1`, with 1250 s; and `COc1ccc(C(=O)N2CC(n3cc(COCC4CC4)nn3)C2)cc1F`, with 620 s.
The value for `COc1ccc(-c2cc3nn(CC(=O)N4CCc5ccccc54)c(=O)n3c(C)n2)cc1` was 856 s.
In the case of `COCCNC(=O)c1ccc2c(c1)CCCN2S(C)(=O)=O`, the RP-LC retention time worked out at 649 s.
As to `Cc1ccc(F)cc1NS(=O)(=O)c1cc2n(c1)CCN(CC(C)C)C2=O`, the RP-LC retention time came to 840 s.
Then `COc1ccc(-c2nc3ncccn3c2Nc2ccc(OC)c(OC)c2)cc1`, with 640 s; and `c1ccc(N2CCN(CCCOc3ccc4c(c3)OCO4)CC2)cc1`, with 770 s.
Then `CCc1ccc(C2=NN(CCC(=O)NC(C)c3ccc4c(c3)OCCO4)C(=O)CC2)cc1` (centres undefined), with 832 s; and `Cn1cc(C(=O)Nc2ccc3c(c2)OCCO3)c2cccnc21`, with 727 s; and `Cn1nc(-c2nc(C3CC3)no2)c2c1CCN(C(=O)Nc1ccc(F)cc1)C2`, with 768 s.
